Laboratory results: the NIST ThermoML archive (doi:10.1016/j.fluid.2006.02.002)
Numbers after ± are expanded uncertainties.

settings: Liquid; ebulliometry

Row | Normal boiling temperature | SMILES
1 | 204.92 ± 0.2 °C | CNC(C)=O [N-methylacetamide]
2 | 203.86 ± 0.2 °C | CN1CCCC1=O [N-methylpyrrolidone]
3 | 117.70 ± 0.2 °C | CC(=O)O [acetic acid]
4 | 99.81 ± 0.2 °C | O [water]
